This passage reports IC50, AC50 and EC50 results from ChEMBL document CHEMBL1201862, “PubChem BioAssay data set” (2004).

Calls of active or inactive are those of the source.

Assay [1] addresses Serine/threonine-protein phosphatase PP1-alpha catalytic subunit (Homo sapiens, UniProt P62136). In words: PP1 phosphatase inhibitors, dose response, biochemical, fluorescence (AID 2403).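 Note: phosphatase turnover of OMFP into fluorescent 3-O-methylfluorescein.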
For another assay, the target named is T1, Aminopeptidase N (Plasmodium falciparum FcB1/Columbia, UniProt O96935).
T1 sequence (O96935 whole entry): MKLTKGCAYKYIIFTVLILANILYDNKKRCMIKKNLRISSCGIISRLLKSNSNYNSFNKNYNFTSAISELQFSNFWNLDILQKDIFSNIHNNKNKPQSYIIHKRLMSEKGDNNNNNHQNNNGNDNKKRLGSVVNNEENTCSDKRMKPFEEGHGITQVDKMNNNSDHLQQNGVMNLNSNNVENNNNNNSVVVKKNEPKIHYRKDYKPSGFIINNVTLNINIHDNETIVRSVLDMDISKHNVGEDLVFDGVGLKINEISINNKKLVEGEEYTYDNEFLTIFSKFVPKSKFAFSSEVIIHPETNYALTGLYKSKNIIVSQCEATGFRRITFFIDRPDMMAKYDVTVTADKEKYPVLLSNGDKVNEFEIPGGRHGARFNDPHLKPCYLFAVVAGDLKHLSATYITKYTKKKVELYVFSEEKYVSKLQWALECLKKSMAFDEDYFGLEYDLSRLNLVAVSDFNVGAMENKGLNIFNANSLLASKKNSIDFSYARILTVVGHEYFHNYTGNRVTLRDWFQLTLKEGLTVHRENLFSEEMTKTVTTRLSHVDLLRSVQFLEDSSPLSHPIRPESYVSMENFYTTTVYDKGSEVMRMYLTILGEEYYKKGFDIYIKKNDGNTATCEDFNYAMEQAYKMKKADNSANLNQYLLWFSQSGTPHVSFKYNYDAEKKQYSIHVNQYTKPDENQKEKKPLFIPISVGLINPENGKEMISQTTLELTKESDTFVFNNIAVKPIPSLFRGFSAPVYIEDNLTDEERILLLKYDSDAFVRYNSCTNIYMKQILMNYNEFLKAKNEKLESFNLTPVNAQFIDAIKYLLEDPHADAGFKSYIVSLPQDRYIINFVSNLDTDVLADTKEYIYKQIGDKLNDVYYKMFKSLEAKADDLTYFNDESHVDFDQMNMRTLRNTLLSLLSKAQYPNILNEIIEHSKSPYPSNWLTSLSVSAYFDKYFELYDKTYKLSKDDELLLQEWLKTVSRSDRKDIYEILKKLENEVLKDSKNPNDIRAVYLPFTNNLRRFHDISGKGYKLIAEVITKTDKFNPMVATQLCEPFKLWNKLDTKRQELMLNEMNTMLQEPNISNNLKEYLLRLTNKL
The experiment in a line: P. falciparum M1AAP inhibitors, biochemical, fluorogenic H-Leu-NHMec substrate, 1536-well (AID 1445). More on the design: species or system Plasmodium falciparum 3D7, 3D7.

The target in assay [2] is T2, Serine/threonine-protein phosphatase (Homo sapiens, UniProt Q9BPW0).
T2 sequence (Q9BPW0 whole entry): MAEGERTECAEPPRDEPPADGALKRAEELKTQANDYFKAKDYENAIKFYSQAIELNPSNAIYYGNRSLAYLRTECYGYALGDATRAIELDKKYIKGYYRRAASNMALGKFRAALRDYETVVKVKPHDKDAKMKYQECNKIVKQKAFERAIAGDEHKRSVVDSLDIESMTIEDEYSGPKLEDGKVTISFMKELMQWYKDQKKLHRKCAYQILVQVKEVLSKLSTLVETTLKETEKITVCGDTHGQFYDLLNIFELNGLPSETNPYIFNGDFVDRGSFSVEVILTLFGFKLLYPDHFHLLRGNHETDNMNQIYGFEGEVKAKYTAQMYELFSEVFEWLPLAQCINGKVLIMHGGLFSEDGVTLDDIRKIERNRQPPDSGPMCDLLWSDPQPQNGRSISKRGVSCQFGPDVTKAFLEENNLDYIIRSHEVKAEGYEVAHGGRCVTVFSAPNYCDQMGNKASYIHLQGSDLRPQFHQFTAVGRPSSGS
The experiment in a line: Counterscreen for inhibitors of PP1: fluorescence-based biochemical high throughput dose response assay to identify inhibitors of Protein Phosphatase 5 (PP5). [Related pubchem assays: 2034 (Summary (PP5 inhibitors)), 1987 (PP5 inhibitors in singlate), 2235 (PP1 inhibitors in singlate)]. (In general: A counterscreen serves to expose hits that act by an unwanted route or on another target.)

Assay [3] deals with Endoplasmic reticulum aminopeptidase 1 (Homo sapiens, UniProt Q9NZ08). In words: ERAP1 aminopeptidase inhibitors, dose response, biochemical, cherry-pick, set 2, plate reader (AID 743314).
Endoplasmic reticulum aminopeptidase 1, sequence (Q9NZ08 whole entry): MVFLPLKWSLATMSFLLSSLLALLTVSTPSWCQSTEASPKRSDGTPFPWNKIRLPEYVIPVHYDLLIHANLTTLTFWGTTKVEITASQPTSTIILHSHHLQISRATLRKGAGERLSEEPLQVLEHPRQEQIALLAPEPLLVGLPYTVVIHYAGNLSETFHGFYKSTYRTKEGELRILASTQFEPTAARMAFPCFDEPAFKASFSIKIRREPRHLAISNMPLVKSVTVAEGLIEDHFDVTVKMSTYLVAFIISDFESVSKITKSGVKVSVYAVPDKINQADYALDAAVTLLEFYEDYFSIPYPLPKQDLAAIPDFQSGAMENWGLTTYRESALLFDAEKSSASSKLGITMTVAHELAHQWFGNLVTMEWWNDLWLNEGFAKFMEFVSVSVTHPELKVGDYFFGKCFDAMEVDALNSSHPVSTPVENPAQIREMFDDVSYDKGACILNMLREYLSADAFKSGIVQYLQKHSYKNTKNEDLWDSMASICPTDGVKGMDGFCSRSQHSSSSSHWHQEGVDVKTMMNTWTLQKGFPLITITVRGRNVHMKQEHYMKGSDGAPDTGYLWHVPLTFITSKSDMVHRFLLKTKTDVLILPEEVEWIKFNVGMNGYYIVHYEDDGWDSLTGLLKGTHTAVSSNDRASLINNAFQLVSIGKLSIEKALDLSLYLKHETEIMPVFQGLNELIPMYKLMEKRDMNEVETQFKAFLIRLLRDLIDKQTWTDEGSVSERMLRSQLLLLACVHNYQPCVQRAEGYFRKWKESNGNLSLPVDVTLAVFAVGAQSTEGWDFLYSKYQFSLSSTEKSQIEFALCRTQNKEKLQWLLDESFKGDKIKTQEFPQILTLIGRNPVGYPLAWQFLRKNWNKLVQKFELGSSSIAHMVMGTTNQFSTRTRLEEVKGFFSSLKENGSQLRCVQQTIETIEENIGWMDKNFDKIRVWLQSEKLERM
The next assay has as its target Large T antigen (Simian virus 40, UniProt P03070). The format is functional, Betapolyomavirus macacae.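 Note: Confirmatory-stage PubChem screen for compounds that inhibit SV40 T antigen.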
The next assay deals with Caspase-6 (Homo sapiens, UniProt P55212). The experiment in a line: human caspase-6 inhibitors, dose response, biochemical, VEID-R110 fluorescence, cherry-pick (AID 720632).
Caspase-6, sequence (P55212 24-179 limits assumed): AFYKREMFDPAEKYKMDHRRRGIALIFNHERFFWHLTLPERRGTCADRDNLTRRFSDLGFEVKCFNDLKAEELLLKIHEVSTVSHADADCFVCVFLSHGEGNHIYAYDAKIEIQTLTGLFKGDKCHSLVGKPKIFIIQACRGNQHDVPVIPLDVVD
Caspase-6, sequence (P55212 194-293 limits assumed): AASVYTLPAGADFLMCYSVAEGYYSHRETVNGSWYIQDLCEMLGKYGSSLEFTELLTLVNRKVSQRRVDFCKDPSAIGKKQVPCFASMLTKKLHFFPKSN
The nature of assay [4]: A549 cell cytotoxicity, dose response, cytotoxicity control, 24 h, CellTiter-Glo luminescence, cherry-picks (AID 1053115). Type of assay: functional, cell-based. The following applies: A549, 24 h.
Assay [5] is described as follows: HCT116 cell viability decrease, GSK3B pretreatment – CellTiter-Glo, IC50, dose response (AID 1117339). The format is functional. The following applies: HCT-116. A general note: ATP-based viability assays read luminescence as a measure of living cells.
The nature of assay [6]: cytotoxicity toward HT-29 cells – cell-based, CellTiter-Glo luminescence, IC50, dose response (AID 1117330). Type of assay: functional.
The nature of assay [7]: cytotoxicity toward Colo320 cells – cell-based, CellTiter-Glo luminescence, IC50, dose response (AID 1117334). Type of assay: functional. Conditions: COLO 320.
The nature of assay [8]: HeLa 2N DNA content increase, dose response, cell-based, IC50 (AID 1117349). The format is functional.
The nature of assay [9]: RKO cell viability reduction, dose response, CellTiter-Glo luminescence (AID 1117322). The format is functional.
The nature of assay [10]: SNU-C1 cell viability reduction, dose response, CellTiter-Glo luminescence (AID 1117323). Type of assay: functional, cell-based.
Assay [11] in a line: cytotoxicity toward HCT116 cells – cell-based, CellTiter-Glo luminescence, IC50, dose response (AID 1117332). Type of assay: functional. Conditions: HCT-116.
Assay [12] in a line: HeLa 4N DNA content increase, dose response, cell-based, IC50 (AID 1117351). Type of assay: functional.
A short description of assay [13]: Concentration-dependent survival of SW480 colon cancer line, luminescence detection with CellTiter-Glo, half-maximal inhibitory concentration (AID 1117338). The format is functional.
Assay [14] is described as follows: CellTiter-Glo luminescent dose response of DLD-1 viability loss (AID 1117352). The format is functional.
Another assay addresses Kallikrein-7 (Homo sapiens, UniProt P49862). The experiment in a line: Fluorescence Intensity-based biochemical primary high throughput dose response assay to identify activators of kallikrein-7 (K7) zymogen.
The nature of assay [15]: C. albicans growth with fluconazole, confirmation, fluorescence, retest (AID 2467). The format is functional, cell-based.
Assay [16] is described as follows: NIH-3T3 fibroblast cytotoxicity, dose response, cytotoxicity control, cell-based, fluorescence, Alamar Blue, secondary assay (AID 2327).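 Note: NIH-3T3 mouse fibroblasts cultured with fluconazole at 8 µg/mL.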 Type of assay: functional. A general note: Alamar Blue is a resazurin reagent that responds to reducing activity.
Another assay has as its target T3, Interleukin-8 (Homo sapiens, UniProt P10145).
T3 sequence (P10145 whole entry): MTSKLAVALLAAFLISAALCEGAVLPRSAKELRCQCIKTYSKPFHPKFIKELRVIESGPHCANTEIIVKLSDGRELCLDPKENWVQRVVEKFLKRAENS
In words: Dose Response confirmation of uHTS small molecule hits for cystic fibrosis induced NFkb Inhibitors in a PAF-induced IL8 counterscreen. The format is functional. Conditions: read-out: IC50_Mean.

Assay [17] is described as follows: A549 cell cytotoxicity, dose response, cytotoxicity control, cherry-picks, 26 µM top dose (AID 1053119). The format is functional, cell-based.
Assay [18] in a line: HEK293 cell cytotoxicity, dose response, cytotoxicity control, cherry-picks, set 5 (AID 1053117). The format is functional, cell-based.
Assay [19] in a line: inhibitors of fibronectin matrix deposition, dose response, AH1F cells, Alexa488-FN fluorescence, cherry-picks (AID 1035475). The format is functional, cell-based.
A short description of assay [20]: MITF Orthogonal Assay: MALME3 CTG Assay Measured in Cell-Based System Using Plate Reader - 2084-04_Inhibitor_Dose_DryPowder_Activity_Set6. The format is functional. Conditions: MALME-3.
The nature of assay [21]: MITF Measured in Cell-Based System Using Plate Reader - 2084-01_Inhibitor_Dose_DryPowder_Activity_Set7. Type of assay: functional.
Assay [22] is described as follows: MITF Orthogonal Assay: SK-MEL-5 CTG Assay Measured in Cell-Based System Using Plate Reader - 2084-02_Inhibitor_Dose_DryPowder_Activity_Set5. The format is functional.
Assay [23] can be described thus: cytotoxicity in primary human melanocytes, dose response, cytotoxicity control, cell-based, plate reader, dry powder (AID 651920). Type of assay: functional.
Assay [24] in a line: MALME3 melanoma cell viability reduction, dose response, orthogonal assay for MITF inhibitor project, CellTiter-Glo luminescence, dry powder, set 5 (AID 651584). Type of assay: functional, cell-based. The following applies: MALME-3.
A short description of assay [25]: SK-MEL-5 parental cell viability reduction, dose response, orthogonal assay for MITF inhibitor project, CellTiter-Glo luminescence, dry powder, set 8 (AID 651586). The format is functional, cell-based.
Assay [26] is described as follows: A375 melanoma cell viability loss, dose response, counter-screen for MITF inhibitor project, CellTiter-Glo luminescence, dry powder, set 4 (AID 624364).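 Note: A375 melanoma cells are MITF independent so this is a counter screen.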 Conditions: A-375. Type of assay: functional, cell-based.
A short description of assay [27]: A375 melanoma cell cytotoxicity, dose response, counter-screen for MITF inhibitor project, CellTiter-Glo luminescence, dry powder, set 7 (AID 624490). The format is functional, cell-based. Conditions: A-375.
Assay [28] can be described thus: MITF Measured in Cell-Based System Using Plate Reader - 2084-01_Inhibitor_Dose_DryPowder_Activity_Set6. The format is functional.
Assay [29] is described as follows: TRPM1 promoter luciferase reporter signal decrease, dose response, MITF inhibitor project, cell-based, SK-MEL-5, dry powder, set 9 (AID 651588). The format is functional.
A short description of assay [30]: SK-MEL-5 parental line viability, dose response, MITF inhibitor project, cell-based, CellTiter-Glo, dry powder, set 6 (AID 624429). Type of assay: functional.

Serine/threonine-protein phosphatase PP1-alpha catalytic subunit, sequence (P62136 whole entry): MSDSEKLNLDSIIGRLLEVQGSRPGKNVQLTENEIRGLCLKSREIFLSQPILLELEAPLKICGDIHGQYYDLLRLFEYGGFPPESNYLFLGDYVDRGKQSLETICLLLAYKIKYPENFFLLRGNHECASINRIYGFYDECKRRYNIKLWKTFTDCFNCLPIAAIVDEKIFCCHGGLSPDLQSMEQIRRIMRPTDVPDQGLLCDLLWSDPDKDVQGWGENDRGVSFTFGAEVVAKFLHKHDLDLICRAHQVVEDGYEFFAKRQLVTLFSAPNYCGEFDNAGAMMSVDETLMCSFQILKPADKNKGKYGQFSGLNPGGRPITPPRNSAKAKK
Kallikrein-7, sequence (P49862 whole entry): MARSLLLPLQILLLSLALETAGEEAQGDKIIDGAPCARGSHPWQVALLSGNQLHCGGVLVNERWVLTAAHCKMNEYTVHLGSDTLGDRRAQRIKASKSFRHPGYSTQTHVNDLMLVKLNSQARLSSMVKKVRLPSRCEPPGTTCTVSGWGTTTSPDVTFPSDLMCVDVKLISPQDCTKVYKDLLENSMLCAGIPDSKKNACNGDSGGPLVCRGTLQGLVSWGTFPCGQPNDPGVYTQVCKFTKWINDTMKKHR
Large T antigen, sequence (P03070 whole entry): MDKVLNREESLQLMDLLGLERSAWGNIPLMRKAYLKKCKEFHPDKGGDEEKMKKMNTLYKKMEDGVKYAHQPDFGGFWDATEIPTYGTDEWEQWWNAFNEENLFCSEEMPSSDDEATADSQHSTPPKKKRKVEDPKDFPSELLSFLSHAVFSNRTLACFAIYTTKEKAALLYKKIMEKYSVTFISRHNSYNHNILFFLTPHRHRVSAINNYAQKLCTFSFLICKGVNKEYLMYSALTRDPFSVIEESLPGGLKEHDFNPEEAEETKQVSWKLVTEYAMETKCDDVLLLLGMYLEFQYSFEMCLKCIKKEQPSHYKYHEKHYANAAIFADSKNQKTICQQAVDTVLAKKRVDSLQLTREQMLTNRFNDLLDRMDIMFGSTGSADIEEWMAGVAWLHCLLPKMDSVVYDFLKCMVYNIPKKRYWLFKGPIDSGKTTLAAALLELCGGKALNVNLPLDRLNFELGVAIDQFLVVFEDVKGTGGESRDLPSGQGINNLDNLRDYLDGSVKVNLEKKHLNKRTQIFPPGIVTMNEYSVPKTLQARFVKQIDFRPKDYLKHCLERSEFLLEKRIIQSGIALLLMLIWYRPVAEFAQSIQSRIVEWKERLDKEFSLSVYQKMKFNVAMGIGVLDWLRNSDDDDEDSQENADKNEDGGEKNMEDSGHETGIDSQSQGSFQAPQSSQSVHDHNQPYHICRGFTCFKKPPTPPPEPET

Consider `CCCCCCC[C@H](N)[C@H](O)C(=O)N(C)[C@@H](CC[S+](C)[O-])C(=O)N[C@@H](Cc1ccc(O)cc1)C(=O)N[C@@H](Cc1ccc(O)cc1)C(=O)O` (stereo not given in full), for which the IC50 was 0.227 µM (active) in assay [1], 16.8 µM (active) on Aminopeptidase N and 0.578 µM (active) in assay [2]. The concentration at half-maximal activity (AC50) in assay [3] was 8.53 µM (active).
`COc1ccc(Br)cc1C1CC(=O)N2CN(C)CSC2=C1C#N` (stereo not given): the IC50 on Large T antigen was 76.9 µM (active). At Caspase-6, the AC50 was 39.2 µM (active).
`COc1ccccc1CN1CC[C@@H]2[C@H](CO)Nc3ccc(C#Cc4ccccc4)cc3[C@@H]21`: the AC50 in assay [4] was > 60 µM (inactive).
Consider `O=C(O)CN(CCN(CC(=O)O)CC(=O)O)CCN(CC(=O)O)CC(=O)O` [PENTETIC ACID], for which the IC50 in assay [5] is 0.896 µM (active); in assay [6], > 20 µM (inactive); in assay [7], > 20 µM (inactive); in assay [8] it was > 10 µM (inactive); in assay [9], 2.96 µM (active); in assay [10] it was > 20 µM (inactive). Moreover, the IC50 in assay [11] is > 6.67 µM (inactive); in [12] it was > 10 µM (inactive); in assay [13], 3.14 µM (active); in assay [14] it was > 20 µM (inactive).
Regarding `COc1ccc(-c2cc(=O)oc3cc(OC(=O)C4CCCCC4)c(Cl)cc23)cc1`, the EC50 on Kallikrein-7 is > 69.5 µM (inactive); in assay [15], 1.9 µM (active); in [16] it was 34.6 µM (active). The IC50 on Interleukin-8 was 4.55 µM (active).
Consider `N#Cc1ccc(-c2ccc3c(c2)[C@H]2[C@H](CCN2S(=O)(=O)c2cccc(F)c2)[C@H](CO)N3)cc1`, for which the results for the AC50 in assay [17], in [18] and in [19] were 33.6 µM (active), 32.6 µM (active) and 5.71 µM (active), respectively.
Consider `O=C1C=C(NS(=O)(=O)c2ccccc2)C(=O)c2ccccc21`, for which the AC50 is 21.3 µM (active) in assay [20]; 4.57 µM (active) in assay [21]; 10.3 µM (active) in assay [22]; 59.4 µM (active) in assay [23]; 21.3 µM (active) in assay [24]; 18.4 µM (active) in assay [25]. The AC50 in [26] is > 70 µM (inactive); in assay [27], > 70 µM (inactive); in assay [28] it was 3.04 µM (active); in assay [29], 13 µM (active); in [30] it was 10.5 µM (active).

As a reminder, the AC50 is the concentration giving half of the maximal activity seen. Broadly, the EC50 is the midpoint of the concentration-response curve.
